The values below come from patent US9458101B2 (priority 2009, dated 2016).

The subject of data set [1] is A549 (Human lung carcinoma). Nature of the data set: Cytotoxicity testing (MTS) on A549. It is filed as cell-based. The procedure:
(§1) Cell lines used were A549 (Human lung carcinoma), HeLa (Human cervical carcinoma), MCF-7 (Human mammary gland adenocarcinoma), CEM (Human T-lymphoblastoid from ALL (Acute lymphoblastic leukemia)), M010B (Human glioma), M006X (Human glioma) and Jurkat (Human T-cell leukemia).
(§2) A series of dilutions were prepared and a wavelength scan of the diluted solution was used to determine the wavelength of maximum absorbance for each compound. Five standardized drug concentrations were scanned at this pre-determined wavelength to obtain an estimate of the compound's extinction coefficient.
(§3) A primary MTS assay was used to test the optimal number of cells for cytotoxicity assays. Cells were trypsinized, counted and introduced into seven lanes of a 96-well plate at different cell numbers (eight replicates per lane). Optimal cell numbers were determined after 72 and 96 hours of growth and were used in subsequent cytotoxicity assays. […] Cell viability was determined using the Cell Titer 96 AQueous One Solution Cell Proliferation Assay (Promega, U.S.A.).
(§4) Fits were performed using a dose-response model ideal for data showing an initial response plateau, a transition region, and a final response plateau.
(§5) [formula] […] Itop is the response obtained at very low/no drug concentration. The data and all parameters were normalized to Itop−Ibot, a measure of the maximum effect of the drug.

Data set [2] relates to HeLa (Human cervical carcinoma). Put plainly: Cytotoxicity testing (MTS) on HeLa. It is filed as cell-based. The protocol: as §1, §2, §3, §4, §5
In data set [3] the test system is MCF-7 (Human mammary gland adenocarcinoma). Put plainly: Cytotoxicity testing (MTS) on MCF-7. It is filed as cell-based. The protocol: as §1, §2, §3, §4, §5
Data set [4] relates to CEM (Human T-lymphoblastoid from ALL). Put plainly: Cytotoxicity testing (MTS) on CEM. It is filed as cell-based. The procedure:
as §1, §2, §3, §4, §5

The subject of the next data set is M010B (Human glioma). Put plainly: Cytotoxicity testing (MTS) on M010B. It is filed as cell-based. The procedure:
as §1, §2, §3, §4, §5

The next data set has as its system M006X (Human glioma). Put plainly: Cytotoxicity testing (MTS) on M006X. In kind it is cell-based. The procedure: as §1, §2, §3, §4, §5
The subject of data set [5] is A549, HeLa, MCF-7 and CEM cell lines. Put plainly: Cytotoxicity, mean over A549, HeLa, MCF-7 and CEM cell lines. The note with it: for IC50 [log10 M] (mean logIC50): mean over A549, HeLa, MCF-7 and CEM cell lines; for cytotoxicity compared with colchicine: cytotoxicity assays; for average IC50 values compared with colchicine: average values of Table 3.
Text: as §1, §3, §5
Cytotoxicity screening was performed on a number of cell lines based on the cancer of origin and differing morphologies.

`COc1cc2c(c(OC)c1OC)-c1ccc(OC)c(=O)cc1[C@@H](NC(C)=O)CC2` [Colchicine, N-[(7S)-1,2,3,10-tetramethoxy-9-oxo-5,6,7,9-tetrahydrobenzo[α]heptalen-7-yl]acetamide, reference compound]: the “Fraction of cells that survive at the highest drug concentrations (Ibot)” value (“Fraction of cells that survive” for short) in data set [1] came to 0.118 ± 0.042; in data set [2], 0.061 ± 0.048; in data set [3] it was 0.377 ± 0.010; in data set [4], 0.016 ± 0.021; in the data set with M010B (Human glioma) it was 0.107 ± 0.017; in the data set on M006X (Human glioma), 0.026 ± 0.005.

Consider `COc1cc2c(c(OC(=O)C(C)C)c1OC)-c1ccc(OC)c(=O)cc1[C@@H](NC(C)=O)CC2` [Compound 5, N-[(7S)-1-(((methyl)ethyl)carbonyloxy)-2,3,10-trimethoxy-9-oxo-5,6,7,9-tetrahydrobenzo [α]heptalen-7-yl]acetamide], for which the “Fraction of cells that survive” value is reported as 0.265 ± 0.043 in data set [1]; 0.025 ± 0.044 in data set [2]; 0.451 ± 0.025 in data set [3]; −0.003 ± 0.048 in data set [4]; 0.258 ± 0.024 with M010B (Human glioma); 0.031 ± 0.018 in the data set on M006X (Human glioma). The logIC50 in data set [1] is on record as −5.09 ± 0.06 log10 M; in data set [2], −5.46 ± 0.13 log10 M; in data set [3] it was −5.25 ± 0.08 log10 M; in data set [4], −5.51 ± 0.13 log10 M; with M010B (Human glioma), −5.22 ± 0.06 log10 M; with M006X (Human glioma), −6.12 ± 0.04 log10 M. Further, in data set [5], the “IC50 [log10 M] (mean logIC50)” value is given as −5.33 ± 0.10 log10 M.

Regarding `COc1cc2c(c(OCC(C)C)c1OC)-c1ccc(OC)c(=O)cc1[C@@H](NC(C)=O)CC2` [Compound 7a, N-[(7S)-2,3,10-trimethoxy-1-(2-methylpropoxy)-9-oxo-5,6,7,9-tetrahydrobenzo[α]heptalen-7-yl]acetamide], the “Fraction of cells that survive” value in data set [1] is given as 0.222 ± 0.026; in data set [2] it was 0.051 ± 0.032; in data set [3], 0.406 ± 0.014; in data set [4] it was 0.022 ± 0.020; with M010B (Human glioma), 0.239 ± 0.031; with M006X (Human glioma) it was 0.197 ± 0.024. Further, the logIC50 in data set [1] is given as −6.52 ± 0.13 log10 M; in data set [2], −6.66 ± 0.11 log10 M; in data set [3], −6.17 ± 0.06 log10 M; in data set [4], −6.76 ± 0.08 log10 M; in the data set on M010B (Human glioma), −6.60 ± 0.14 log10 M; in the data set on M006X (Human glioma), −7.12 ± 0.06 log10 M. In data set [5], the “cytotoxicity compared with colchicine” value is given as “moderately better than colchicine”. For the same compound, the “IC50 [log10 M] (mean logIC50)” value in data set [5] is −6.53 ± 0.10 log10 M.

As to `CCCOc1c(OC)c(OC)cc2c1-c1ccc(OC)c(=O)cc1[C@@H](NC(C)=O)CC2` [Compound 8, N-[(7S)-2,3,10-trimethoxy-9-oxo-1-(propanoxy)-5,6,7,9-tetrahydrobenzo[α]heptalen-7-yl]acetamide], the “Fraction of cells that survive” value worked out at 0.246 ± 0.013 in data set [1]; 0.044 ± 0.020 in data set [2]; 0.433 ± 0.013 in data set [3]; 0.000 ± 0.013 in data set [4]; 0.181 ± 0.020 in the data set with M010B (Human glioma); 0.072 ± 0.014 in the data set with M006X (Human glioma). Further, the logIC50 in data set [1] is listed as −7.80 ± 0.07 log10 M; in data set [2] it was −7.68 ± 0.09 log10 M; in data set [3], −7.50 ± 0.12 log10 M; in data set [4], −8.48 ± 0.10 log10 M; in the data set on M010B (Human glioma) it was −7.49 ± 0.13 log10 M; with M006X (Human glioma), −7.98 ± 0.03 log10 M. The “cytotoxicity compared with colchicine” value in data set [5] was “moderately better than colchicine”. Also, the “IC50 [log10 M] (mean logIC50)” value in data set [5] was −7.86 ± 0.10 log10 M.

Regarding `C=CCOc1cc2c(c(OC)c1OC)-c1ccc(SC)c(=O)cc1[C@@H](NC(C)=O)CC2` [Compound 41, N-[(7S)-1,2-dimethoxy-10-methylsulfanyl-9-oxo-3-(prop(2-en)oxy)-5,6,7,9-tetrahydrobenzo[α]heptalen-7-yl]acetamide], the “Fraction of cells that survive” value in data set [1] was 0.243 ± 0.012; in data set [2], 0.039 ± 0.016; in data set [3], 0.472 ± 0.016; in data set [4] it was −0.050 ± 0.022. Further, the logIC50 is recorded as −8.50 ± 0.11 log10 M in data set [1], −8.45 ± 0.11 log10 M in data set [2], −8.31 ± 0.12 log10 M in data set [3] and −8.29 ± 0.10 log10 M in data set [4]. Also, in data set [5], the “average IC50 values compared with colchicine” value was “stronger than colchicine”. Also, the “IC50 [log10 M] (mean logIC50)” value in data set [5] was −8.39 ± 0.11 log10 M.

Take `CCCOc1cc2c(c(OC)c1OC)-c1ccc(SC)c(=O)cc1[C@@H](NC(C)=O)CC2` [Compound 43, N-[(7S)-3-propoxy-1,2-dimethoxy-10-methylsulfanyl-9-oxo-5,6,7,9-tetrahydrobenzo[α]heptalen-7-yl]acetamide]: the “Fraction of cells that survive” value came out at 0.198 ± 0.024 in data set [1]; 0.025 ± 0.025 in data set [2]; 0.399 ± 0.015 in data set [3]; 0.010 ± 0.014 in data set [4]; 0.214 ± 0.022 in the data set with M010B (Human glioma). Besides, the logIC50 in data set [1] is recorded as −8.76 ± 0.11 log10 M; in data set [2] it was −8.66 ± 0.12 log10 M; in data set [3] it was −8.71 ± 0.10 log10 M; in data set [4], −8.55 ± 0.09 log10 M; in the data set with M010B (Human glioma), −8.51 ± 0.15 log10 M. Further, the “average IC50 values compared with colchicine” value in data set [5] was “stronger than colchicine”. In addition, the “cytotoxicity compared with colchicine” value in data set [5] is recorded as “consistently the most effective”. Also, the IC50 in data set [5] (cytotoxicity experiments, most potent derivative) came out at 2.13 ± 0.77 nM. In addition, in data set [5], the “IC50 [log10 M] (mean logIC50)” value is given as −8.67 ± 0.11 log10 M.

By IC50 is commonly meant the midpoint of a concentration-inhibition curve.
